Measured values published in a melting point compilation (Tetko et al.; mined from patent text by program, amines drawn as free bases though some values may be those of a salt).
Residues, ends and D or L forms follow the SMILES beside them. *: point of attachment. Cbz = O=C(OCc1ccccc1)*; Bn = c1ccc(C*)cc1; For = O=C*

SMILES | melting point
Nc1ncnc2cc(-c3ccc(C(F)(F)F)cc3)sc12 | 181 to 194 °C
O=c1[nH]c(-c2cccnc2O)nc2ccccc12 | 190 to 192 °C
CC(C)(C)c1cc(C2NC(=O)NC2c2ccccc2)cc(C(C)(C)C)c1O (configuration not stated) | > 300 °C
O=C1c2cccc(NC(=S)Nc3cccc4c3C3CC5(CCN3C4=O)SCCS5)c2C2CC3(CCN12)SCCS3 (configuration not stated) | 188 °C
CC(C)N1C(=O)N(c2ccc([N+](=O)[O-])c(C(F)(F)F)c2)C(=O)C1(C)C | 130 °C
Cc1cccc2c1C(=O)CC2=O | 125 to 128 °C
COc1ccc(-n2nc(N3CCN(C#N)CC3)c3ccccc32)cc1 | 118 to 120 °C
O=C(O)C#CC(O)(c1ccc(OCc2ccc3ccccc3n2)cc1)c1ccc(OCc2ccc3ccccc3n2)cc1 | 169 to 172 °C
CCCCCCC1C(=O)NC2(C(O)C3CCCCC3)C(=O)OC12C (configuration not stated) | 167 °C
COc1ccc(C(=O)O)c2cc(C3CCCC3)oc12 | 170 to 171 °C
CCNc1c(OC)cc(C(=O)CS(C)(=O)=O)cc1OC | 129 to 130 °C
COc1ccc2c(c1)-c1c(cc(C)n1C[C@@H](C)O)C2 | 110 °C
N#CCOC(=O)c1cc(SCc2ccccc2)c(Cc2ccccc2)c(S(N)(=O)=O)c1 | 190 to 192 °C
CCc1cccc(CC)c1NC(=O)C(C)Br (configuration not stated) | 197 to 199 °C
CN(c1cc(OCCCS(C)(=O)=O)cc2cc(C3=NCC(CN4CCS(=O)CC4)S3)[nH]c12)S(=O)(=O)c1ccccn1 (configuration not stated) | 107 to 110 °C
O=C(N[C@@H](Cc1ccccc1)C(=O)N[C@H](CO)Cc1c[nH]c2ccccc12)OCc1ccccc1 | 154 to 156 °C
COC(=O)c1ccc(CN(CC2CCOCC2)S(=O)(=O)c2ccc(Cl)cc2)cc1 | 115 to 117 °C
OC(CCCn1ccnc1)c1ccccc1 (configuration not stated) | 205 to 207 °C
Clc1ccc(-c2nc3n(c2Br)CCS3)c(Cl)c1 | 200 to 202 °C
CC(=O)N(C)CCCC(=O)OC1c2ccccc2C(=O)N1c1ccc2ccc(Cl)nc2n1 (configuration not stated) | 170 °C
Cc1cc(NCc2ccccc2)c2c(c1)C(c1ccc(C(C)C)cc1)C(C)(C)O2 (configuration not stated) | 80 to 81 °C
CC(C)Cn1c(=O)n(C)c(=O)c2c(I)n(Cc3cccc4ccccc34)cc21 | 140 to 142 °C
CCOC(=O)CNC(=O)Oc1ccc([N+](=O)[O-])c2cccnc12 | 121 to 122 °C
COc1cc2cc(C3CCCCC3)sc2c(Cl)c1Cl | 60 °C
Cn1ncnc1COc1nn2c(-c3ccccc3F)nncc2c1-c1cccc(N)c1 | 196 to 200 °C

SMILES | melting point
Cc1ccc(Cl)c(OCC(O)CNCCNC(=O)NCCCO[N+](=O)[O-])c1 (configuration not stated) | 109 to 111 °C
CC(=O)Nc1nc(CCc2ccc(CON3C(=O)c4ccccc4C3=O)cc2)cs1 | 225 to 226 °C
CCCCCCC1CC(=O)C=C(N)C1 (configuration not stated) | 113 °C
CNC1=NS(=O)N=C1NCCSCc1ccc(CN(C)C)o1 (configuration not stated) | 86 to 92 °C
Cc1ccc(NC(=O)c2c(Cl)cccc2Cl)c2nccc(Cl)c12 | 258 to 260 °C
COC(=O)CCCNS(=O)(=O)c1cccc2c([N+](=O)[O-])cccc12 | 102 to 104 °C
CCCCn1cnnc1S | 67 to 69 °C
S=C(Cc1ccccc1)N1CCOCC1 | 115 to 116 °C
CC12CCC(C(=Cc3ccc(COc4ccccc4C(=O)O)cc3)C1=O)C2(C)C (configuration not stated) | 128 °C
COCC(=O)Nc1ccc(C2=NNC(=O)CC2C)cc1 (configuration not stated) | 212 °C
COc1ccc(CF)c(CN(C(C)=O)c2cc(F)ccc2Oc2ccccc2)c1 | 71 to 72 °C
CCOC(=O)/C=C/C=Cc1ccc(OCCc2nc(-c3ccccc3)oc2C)cc1 | 102 to 103 °C
CCOC(=O)Nc1nc(-c2ccccc2)c(-c2nc3ccccc3c(=O)n2-c2ccc(OC)cc2)s1 | 256 to 257 °C
COc1ccc2cc(C(C)C(=O)ON(C(N)=O)C(C)c3ccoc3)ccc2c1 (configuration not stated) | 128 to 134 °C
Cc1nn(-c2cc3nc(S)sc3cc2F)c(=O)n1C | 299 to 301 °C
C=CCN(C(C)c1ccccc1)S(=O)(=O)c1ccc(O)cc1 (configuration not stated) | 128 to 129 °C
OC1CSC(Oc2cccnc2Br)C(O)C1O (configuration not stated) | 151 °C
O=C(O)c1cn(-c2ccc(F)cc2F)c2c(F)c(N3Cc4cccc(F)c4C3)c(F)cc2c1=O | > 300 °C
Cc1ccc(S(=O)(=O)OC[C@H]2CC[C@H](C#N)CC2)cc1 | 84 to 85 °C
CNC(=O)c1cccc(Br)c1 | 126 °C
CN(C)c1ccc(C=C2C=C(C(C)(C)C)C(=O)C(C(C)(C)C)=C2)cc1 | 175 °C
Cn1cc(-c2ncc(-c3ccc4cc(OC(Cc5ccccc5)C(=O)O)ccc4c3)o2)c2ccccc21 (configuration not stated) | 149 to 151 °C
CS(=O)(=O)Nc1cccc(Nc2nc(NCC(O)CO)c3nc[nH]c3n2)c1 (configuration not stated) | 164 to 168 °C
Cc1cccc2c1N(Cc1ccccn1)C(=O)C(NC(=O)Nc1cccc(-c3nnn[nH]3)c1)N=C2c1ccccc1F (configuration not stated) | 174 to 182 °C
NS(=O)(=O)c1ccccc1CN1CCCC1 | 110 to 112 °C

SMILES | melting point
CC(CCCC(=O)O)NC(=O)C(C)S (configuration not stated) | 78 to 79 °C
O=S(=O)(CC(F)(F)F)c1nc2cc(Cl)ccc2[nH]1 | 161 to 164 °C
CCCCCCCC(=O)NCCCCCO | 62 to 63 °C
C=CCOc1c(C(C)=O)ccc(OCCCOc2ccc3cc(C(=O)OC)oc3c2C)c1CCC | 80 to 83 °C
Cc1cc2cc(CN3CCCC3)cnc2cc1NC(=O)c1ccc(-c2ccc(Cl)s2)cc1 | 216 °C
Cc1ccc(S(=O)(=O)Nc2cc(CC(C)C)c([N+](=O)[O-])cc2Br)cc1 | 170 °C
C[C@H]1c2cc(F)ccc2-c2ccccc2N1S(=O)(=O)c1ccc(O)cc1 | 193 °C
CNc1ccc(C(=N)NC(=O)OCc2ccccc2)c(F)c1 | 128 to 130 °C
CC(C)(C)OC(=O)N1CCCC2(CCN(c3ccc4nc(-c5ccc(F)cc5)c(-c5ccnc6[nH]ccc56)n4n3)CC2)C1 | 192 to 193 °C
O=Cc1cc(Oc2ccc(C(F)(F)F)cc2Cl)ccc1[N+](=O)[O-] | 95 °C
COc1cc(Cc2cnc(N)nc2N)c(Cc2cnc(N)nc2N)cc1OC | 280 °C
COCC1COc2cc3ncnc(Nc4cc(Cl)cc(Cl)c4)c3cc2O1 (configuration not stated) | 269 to 274 °C
Nc1c[nH]c(=S)n1C1CCc2ccccc2C1 (configuration not stated) | 169 to 171 °C
NS(=O)(=O)c1cnc(-c2cccs2)s1 | 134 to 136 °C
CCOC(=O)c1sc(SC)c2c1CCc1cn[nH]c1-2 | 207 to 208 °C
CC/C(=C\C=C\C(O)(C(F)(F)F)C(F)(F)F)c1ccc(COc2ccc(CO)c(CO)c2)s1 | 113 to 114 °C
CC(C)C1(C)NC(c2ccc3ccccc3n2)=NC1=O (configuration not stated) | 112 to 117 °C
CC(=O)NC[C@H]1CN(c2ccc(N3CCC4(CCOCCO4)CC3)c(F)c2)C(=O)O1 | 182 to 184 °C
COC(=O)CCCCCCCNC(=O)C(CO)NS(=O)(=O)c1ccc(Cl)cc1 (racemic) | 88 to 92 °C
CN(C)CCc1c(CC(N)=O)c2ccccc2n1C | 131 to 134 °C
O=C(/C=C/C=C(c1cccc(Cl)c1)c1cccc(Cl)c1)NCCCCc1cccnc1 | 100 to 102 °C
O=C(NCCCl)Nc1ccncc1 | 120 to 122 °C
Nc1nc2c(s1)CCN(CC=Cc1ccccc1[N+](=O)[O-])CC2 | 125 to 128 °C
OC(Cn1cncn1)(Cn1cnc(C=Cc2ccc(C(F)(F)F)cc2)n1)c1ccc(OC(F)(F)F)cc1 (configuration not stated) | 193 to 195 °C
CN1Cc2c(NC(=O)OCc3ccccc3)ncn2-c2ccccc2C1=O | 246 to 247 °C

SMILES | melting point
CC(=O)N1CCN(C2CCN(c3ccc(NC(=O)c4cnn(-c5ccc(Cl)cc5)c4C)cc3C#N)CC2)CC1 | 247 °C
CCCc1nn(C)c2c(=O)[nH]c(-c3cc(-n4ccnc4)ccc3OCC)nc12 | 193 to 194 °C
Cc1ccc2c(Cl)ccnc2c1N | 75 to 77 °C
CC(C)(C)c1ccc(S(=O)(=O)N2c3ccccc3C[C@H]2C(=O)NCc2ccc(N)cc2)cc1 | 83 to 87 °C
O=C(NC(NC(=S)Nc1cccnc1)C(F)(F)F)c1ccc(Cl)cc1 (configuration not stated) | 147 to 149 °C
COc1ccc2cc(C(C)C(=O)ON(C(N)=O)C(C)c3cc4ccccc4s3)ccc2c1 (configuration not stated) | 62 to 70 °C
CCSc1ccc(Cl)c(OS(C)(=O)=O)n1 | 40 to 41 °C
COC(=O)C1=C(C)NC(C)=C(C(=O)OC)C1c1cc([N+](=O)[O-])ccc1OCCCCNCC(O)COc1ccc(OC)cc1 (configuration not stated) | 154 to 155 °C
CCC(=O)NCC1CC1c1cccc2nn(CC)cc12 (configuration not stated) | 114 to 115 °C
CN(C)c1ccc(C=CC(=O)N2CCc3c([nH]c4ccccc34)C2c2ccc3c(c2)CCO3)cn1 (configuration not stated) | 171 °C
CC(C)=CCn1c(-c2c(F)cccc2F)nc2c(C)cccc21 | 78 to 79 °C
CCCCOc1ccc(/C=C/c2nc3c([nH]2)c(=O)n(CCC)c(=O)n3CCC)cc1 | 237 to 239 °C
C#CCC1(c2ccccc2)Cc2cc(OCC(=O)O)c(Cl)c(Cl)c2C1=O (configuration not stated) | 236 to 240 °C
Cc1cccc2c(Nc3cccc(OCCN(CCCl)CCCl)c3)c3cccc(C(=O)NCCN(C)C)c3nc12 | 129 to 130 °C
CC(C)c1nc(CN2C(=O)C3(COc4cc5c(cc43)OCO5)c3c(-c4ccc(N(C)C)nc4)cccc32)cs1 (configuration not stated) | 164 to 165 °C
CCOC(=O)c1ccc(NC(=O)c2ccc(F)cc2)cc1 | 172 to 174 °C
C=C(C)COc1cc(OC)cc(C(=O)OC)c1 | 159 to 161 °C
COC(=O)C(Cc1ccccc1)NC(=O)C(CC(=O)O)NC=O (stereo not drawn) (For-Asp-Phe-OMe; configuration not given here) | 124 °C
Cc1cc(-c2cc(C(F)F)n3ncc(C(=O)Nc4cccc(S(C)(=O)=O)c4)c3n2)ccc1C(F)(F)F | 261 °C
CCNC(=O)C(COCc1ccccc1)NC(=O)C(Cc1ccc(OCc2ccccc2)cc1)NC(=O)C(Cc1c[nH]cn1)NC(=O)OCc1ccccc1 (stereo not drawn) (Cbz-His-Tyr(Bn)-Ser(Bn)-NHEt; configuration not given here) | 182 to 188 °C
Cc1cc(SC2=C(O)CC(CCc3ccoc3)(C(C)C)OC2=O)c(C(C)(C)C)cc1CO (configuration not stated) | 62 to 70 °C
O=C(O)Cc1cccc2c(-c3ccc(Br)cc3)nccc12 | 230 to 232 °C
